Experiments:
rat spine fusion model = experiment: Manual palpation fusion, rat posterolateral spine fusion model; assay type: in vivo, Sprague Dawley rats; conditions: freshly harvested spine explants, 12 weeks
Description: Sixteen male adult (220 to 260 g) Sprague Dawley rats were utilized to compare BMP-2 mediated spine fusion in presence and absence of NBD. […] Therefore, this concentration of BMP-2 was employed. In detail, eight rats underwent single-level posterolateral fusion in the lumber spine using BMP-2 (total dose of 30 μg/side/rat) and NBD ([…]) loaded ACS and eight rats served as positive controls (30 μg/side/rat BMP-2-loaded ACS, no NBD). Rat spines were allowed to heal and consolidate for 12 weeks. Radiographical fusion was determined via high-resolution radiographs obtained at monthly intervals postoperatively. After 12 weeks, ex vivo micro-computed tomography was performed on explanted spines to determine the structural properties of the fusion mass. For functional assessment of spinal fusion, manual palpation was performed. Finally, histological evaluation of spine fusion was performed in terms of Masson-trichrome staining (Table 1). The posterolateral intertransverse process fusion surgical procedure is described briefly. […] The condition of the rats was monitored daily. […] Fusion was determined via manual palpation of segments by two independent observers. Any motion that was detected between the L4 and L5 segment, including the transverse process or vertebral bodies, was considered to indicate a fusion failure. […]

[1] = tested on: carrageenan-induced edema; conditions: cited from earlier work
[2] = phase I clinical trial in dogs; cited from earlier work
NFκB = conditions: without affecting the basal activity of IKK; cited from earlier work
[3] = tested on: inflammatory bone destruction; conditions: cited from earlier work

TALDWSWLQTE (listed as Homo sapiens) [NBD]
fusion by manual palpation (rat spine fusion model): 100%
paw edema in mice ([1]; 100 μg and 500 μg NBD): ameliorate
carrageenan-induced edema formation and cellular inflammation in mouse paws ([1]; mouse, in vivo): significantly inhibit
toxicity [2]: low toxicity
pro-inflammatory cytokine-induced NFκB activation (NFκB): block
inflammatory bone destruction in vivo ([3]; continuous administration): prevent
signs of toxicity ([3]; in vivo): without showing signs of toxicity
